Among the data in patent US9540397B2, “BACE1 inhibitors” (Hoffmann-La Roche Inc., priority 2014, dated 2017) are IC50 and response vs control in vivo values, retold here.

Assay [1] concerns the target T1, BACE1 (Homo sapiens, UniProt P56817).
T1 construct: endogenous in cells; host or cells: HEK293 APP cells
Description: Cellular Aβ-lowering assay (Abeta 40 AlphaLISA, HEK293 APP cells). Conditions: 18-20 hrs incubation, Aβ40 in culture supernatant, read-out: BACE1 cell act. Aβ40 IC50. Format: cell-based. The procedure: Cellular Aβ-lowering assay:
The Abeta 40 AlphaLISA Assay can be used. The HEK293 APP cells were seeded in 96 well Microtiter plates in cell culture medium (Iscove's, plus 10% (v/v) fetal bovine serum, penicillin/streptomycin) to about 80% confluency and the compounds were added at a 3× concentration in ⅓ volume of culture medium (final DMSO concentration was kept at 1% v/v). After 18-20 hrs incubation at 37° C. and 5% CO2 in a humidified incubator, the culture supernatants were harvested for the determination of AP 40 concentrations using Perkin-Elmer Human Amyloid beta 1-40 (high specificity) Kit (Cat#AL275C).
In a Perkin-Elmer White Optiplate-384 (Cat#6007290), 2 ul culture supernatants were combined with 2 μl of a 10× AlphaLISA Anti-hAβ Acceptor beads+Biotinylated Antibody Anti-Aβ 1-40 Mix ([…]/5 nM). After 1 hour room temperature incubation, 16 μl of a 1.25× preparation of Streptavidin (SA) Donor beads (25 μg/mL) were added and incubated for 30 minutes in the Dark. Light Emission at 615 nm was then recorded using EnVision-Alpha Reader. Levels of Aβ 40 in the culture supernatants were calculated as percentage of maximum signal (cells treated with 1% DMSO without inhibitor). The IC50 values were calculated using the Excel XLfit software.
(In Alpha technology, singlet oxygen from a donor bead excites a nearby acceptor bead.)

The subject of assay [2] is Aβ40 in brain of wild-type mice. Description: Lowering of Aβ40 in brain of wild-type mice. The conditions noted are these: Mus musculus, po; female C57Bl/6J mice, 30 mg/kg per os, 4 h; brain Aβ40 related to the value in the vehicle group; read-out: Aβ40 (wt mice, brain). Format: in vivo. The procedure:
Lowering of Aβ40 in Brain of Wild-Type Mice:
Animals and Housing Conditions.
Animals were maintained in a 12/12 h light/dark cycle, with lights starting at 6 a.m., and experiments were conducted during the light phase. Animal housing and experimental procedures were in line with ethical and legal guidelines and were authorized by local veterinary authorities.
Experiment. Female C57Bl/6J mice were treated with a dose of 30 mg/kg of the compounds, 3-4 animals per treatment group. The test compound was dissolved in 5% EtOH, 10% Solutol, and was applied per os at 10 mL/kg. After 4 h, the animals were sacrificed and brain and plasma were collected. The brain was cut into halves and immediately frozen on dry ice. Brain was used for measurement of Aβ40 and plasma was used for determination of compound exposure. […] Brain tissue was homogenized in 2% DEA buffer in a Roche MagnaLyser (20″, 4000 rpm) and subsequently centrifuged for 1 h at 100000 g. DEA was reduced to 0.2% in 50 mM NaCl and one-half of the DEA lysate was passed over an Oasis Solid phase extraction plate (Waters; cat. no. 186000679), which had been activated with MeOH and equilibrated in dH2O (1 mL each). After washes in 10% and 30% MeOH (1 mL each), the Aβ-peptides were eluted in 0.8 mL of 2% NH4OH in 90% MeOH. The eluate was dried over a N2 flow, and the dried sample was reconstituted in 30 μL of AlphaLISA assay buffer. Aβ40 was determined by an AlphaLISA assay (Perkin-Elmer). In a white 96-well, half area microplate (Perkin-Elmer cat. no. 6005561), 20 μL of the reconstituted sample were mixed with 5 μL of biotinylated BAP-24 (specific for C-terminus of Aβ40) (Brockhaus, M.; Grunberg, J.; Rohrig, S.; Loetscher, H.; Wittenburg, N.; Baumeister, R.; Jacobsen, H.; Haass, C. Caspasemediated cleavage is not required for the activity of presenilins in amyloidogenesis and NOTCH signaling. NeuroReport 1998, 9, 1481-1486.) stock=4.4 mg/mL, f.c.5.5 μg/mL), and 5 μL 252Q6 acceptor beads (252Q6 antibody, Invitrogen AMB0062) had been previously conjugated with AlphaLISA Acceptor beads (Perkin-Elmer cat. no. 6772002); final dilution 1:500). The mix was incubated for 1 h at RT in the dark. Then 20 μL of Streptavin-coated Donor Beads (Perkin-Elmer cat. no. 6760002, final dilution 1:125) were added and this final mix was incubated in the dark for another 30 min at RT before RFU was measured in an AlphaScreen Reader (Perkin-Elmer Envision 2104). The value obtained for Aβ40 in the treated animals was related to the value in the vehicle group and is given in %. Alternatively a commercial ELISA was used for Aβ40 determination (Wako ELISA: (“Human/Rat β Amyloid (40) ELISA kit Wako II”; cat nr. 294-64701) following the manufacture's instruction. Also here the Aβ-lowering efficacy was calculated as percentage of the vehicle group.

A word on the IC50: it is the point on the concentration scale where inhibition reaches its midpoint.

T1 sequence (P56817 46-501): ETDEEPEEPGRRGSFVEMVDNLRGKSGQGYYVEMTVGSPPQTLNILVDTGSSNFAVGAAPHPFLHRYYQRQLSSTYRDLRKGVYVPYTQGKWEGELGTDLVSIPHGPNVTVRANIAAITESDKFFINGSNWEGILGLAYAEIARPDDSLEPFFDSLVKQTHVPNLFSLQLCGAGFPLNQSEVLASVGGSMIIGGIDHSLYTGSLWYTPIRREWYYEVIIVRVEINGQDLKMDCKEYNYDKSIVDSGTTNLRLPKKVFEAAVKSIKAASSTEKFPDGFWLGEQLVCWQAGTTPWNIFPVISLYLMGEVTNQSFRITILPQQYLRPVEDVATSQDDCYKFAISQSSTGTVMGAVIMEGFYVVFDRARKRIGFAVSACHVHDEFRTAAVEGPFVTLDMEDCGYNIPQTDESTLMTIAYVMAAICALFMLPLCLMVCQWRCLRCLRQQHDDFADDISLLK

`CC1(C)C(N)=N[C@](C)(c2nc(NC(=O)c3ncc(C#N)cc3Cl)ccc2F)[C@H]2CCN=[S@]21=O` [Example 25BA, N-(6-((3aR,4R,8S)-6-amino-4,7,7-trimethyl-8-oxido-3,3a,4,7-tetrahydro-2H-isothiazolo[1,5-a][1,4]thiazin-4-yl)-5-fluoropyridin-2-yl)-3-chloro-5-cyanopicolinamide]: the concentration for half-maximal inhibition (IC50) in assay [1] was 15.5 nM. In addition, the response vs control in vivo at 30 mg/kg in assay [2] came out at 117%.
The matching figures for `CC1(C)C(N)=N[C@](C)(c2nc(NC(=O)c3ccc(OC(F)F)cn3)ccc2F)[C@H]2CC(F)(F)CN=[S@@]21=O` [Example 35AA, N-(6-((4aR,5R,9R)-7-amino-3,3-difluoro-5,8,8-trimethyl-9-oxido-2,3,4,4a,5,8-hexahydro-[1,4]thiazino[2,1-f][1,2]thiazin-5-yl)-5-fluoropyridin-2-yl)-5-(difluoromethoxy)picolinamide]: 87.4 nM and 101%.
With `CC1(C)C(N)=N[C@](C)(c2nc(NC(=O)c3ccc(OCC(F)(F)C(F)F)cn3)ccc2F)[C@H]2CC(F)(F)CN=[S@@]21=O` [Example 36AA, N-(6-((4aR,5R,9R)-7-amino-3,3-difluoro-5,8,8-trimethyl-9-oxido-2,3,4,4a,5,8-hexahydro-[1,4]thiazino[2,1-f][1,2]thiazin-5-yl)-5-fluoropyridin-2-yl)-5-(2,2,3,3-tetrafluoropropoxy)-picolinamide], the IC50 in assay [1] was determined as 416 nM. Besides, the response vs control in vivo at 30 mg/kg in assay [2] came to 84%.
The matching figures for `COc1cnc(C(=O)Nc2ccc(F)c([C@@]3(C)N=C(N)C(C)(C)[S@@]4(=O)=NCC[C@@H]34)n2)cn1` [Example 16AB, N-(6-((3aS,4R,8R)-6-amino-4,7,7-trimethyl-8-oxido-3,3a,4,7-tetrahydro-2H-isothiazolo[1,5-a][1,4]thiazin-4-yl)-5-fluoropyridin-2-yl)-5-methoxypyrazine-2-carboxamide]: 8.6 nM and 89%.
The matching figures for `CC1(C)C(N)=N[C@](C)(c2nc(NC(=O)c3cnc(OC(F)F)cn3)ccc2F)[C@@H]2CCN=[S@@]21=O` [Example 26AB, N-(6-((3aS,4R,8R)-6-amino-4,7,7-trimethyl-8-oxido-3,3a,4,7-tetrahydro-2H-isothiazolo[1,5-a][1,4]thiazin-4-yl)-5-fluoropyridin-2-yl)-5-(difluoromethoxy)pyrazine-2-carboxamide]: 7.7 nM and 82%.
For `Cc1cc(Cl)cnc1C(=O)Nc1ccc(F)c([C@@]2(C)N=C(N)C(C)(C)[S@@]3(=O)=NCC(F)(F)C[C@H]23)n1` [Example 42AA, N-(6-((4aR,5R,9R)-7-amino-3,3-difluoro-5,8,8-trimethyl-9-oxido-2,3,4,4a,5,8-hexahydro-[1,4]thiazino[2,1-f][1,2]thiazin-5-yl)-5-fluoropyridin-2-yl)-5-chloro-3-methylpicolinamide], in assay [1], the IC50 is 19.4 nM. Also, in assay [2], the response vs control in vivo at 30 mg/kg amounted to 85%.
`CC1(C)C(N)=N[C@](C)(c2nc(NC(=O)c3ncc(OC(F)F)cc3Cl)ccc2F)[C@H]2CC3(CC3)CN=[S@@]21=O` [Example 50AA, N-(6-((4aR,5R,9R)-7-amino-5,8,8-trimethyl-9-oxido-4,4a,5,8-tetrahydro-2H-spiro[[1,4]thiazino[2,1-f][1,2]thiazine-3,1′-cyclopropan]-5-yl)-5-fluoropyridin-2-yl)-3-chloro-5-(difluoromethoxy)picolinamide]: the IC50 in assay [1] worked out at 15.9 nM. Moreover, the response vs control in vivo at 30 mg/kg in assay [2] turned out to be 117%.
For `CC1(C)C(N)=N[C@](C)(c2nc(NC(=O)c3ncc(Cl)cc3Cl)ccc2F)[C@H]2CCCN=[S@@]21=O` [Example 3AA, N-(6-((4aR,5R,9R)-7-amino-5,8,8-trimethyl-9-oxido-2,3,4,4a,5,8-hexahydro-[1,4]thiazino[2,1-f][1,2]thiazin-5-yl)-5-fluoropyridin-2-yl)-3,5-dichloropicolinamide] the same measures were 1.3 nM and 76%.
The matching figures for `CC1(C)C(N)=N[C@](C)(c2nc(NC(=O)c3ncc(F)cc3Cl)ccc2F)[C@@H]2CCN=[S@@]21=O` [Example 11AB, N-(6-((3aS,4R,8R)-6-amino-4,7,7-trimethyl-8-oxido-3,3a,4,7-tetrahydro-2H-isothiazolo[1,5-a][1,4]thiazin-4-yl)-5-fluoropyridin-2-yl)-3-chloro-5-fluoropicolinamide]: 3.5 nM and 100%.
The matching figures for `Cc1cc(Cl)cnc1C(=O)Nc1ccc(F)c([C@@]2(C)N=C(N)C(C)(C)[S@@]3(=O)=NCC[C@@H]23)n1` [Example 12AB, N-(6-((3aS,4R,8R)-6-amino-4,7,7-trimethyl-8-oxido-3,3a,4,7-tetrahydro-2H-isothiazolo[1,5-a][1,4]thiazin-4-yl)-5-fluoropyridin-2-yl)-5-chloro-3-methylpicolinamide]: 1.3 nM and 38%.
Take `CC1(C)C(N)=N[C@](C)(c2nc(NC(=O)c3ncc(C#N)cc3Cl)ccc2F)[C@@H]2CCN=[S@@]21=O` [Example 25AB, N-(6-((3aS,4R,8R)-6-amino-4,7,7-trimethyl-8-oxido-3,3a,4,7-tetrahydro-2H-isothiazolo[1,5-a][1,4]thiazin-4-yl)-5-fluoropyridin-2-yl)-3-chloro-5-cyanopicolinamide]: the concentration for half-maximal inhibition (IC50) in assay [1] worked out at 0.5 nM. The response vs control in vivo at 30 mg/kg in assay [2] was 56%.
The matching figures for `Cc1cc(C#N)cnc1C(=O)Nc1ccc(F)c([C@@]2(C)N=C(N)C(C)(C)[S@@]3(=O)=NCCC[C@@H]23)n1` [Example 1AB, N-(6-((4aS,5R,9R)-7-amino-5,8,8-trimethyl-9-oxido-2,3,4,4a,5,8-hexahydro-[1,4]thiazino[2,1-f][1,2]thiazin-5-yl)-5-fluoropyridin-2-yl)-5-cyano-3-methylpicolinamide]: 2.3 nM and 79%.
With `Cc1c(C(=O)Nc2ccc(F)c([C@@]3(C)N=C(N)C(C)(C)[S@@]4(=O)=NCCC[C@H]34)n2)nc2ccc(Cl)cn12` [Example 6AA, N-(6-((4aR,5R,9R)-7-amino-5,8,8-trimethyl-9-oxido-2,3,4,4a,5,8-hexahydro-[1,4]thiazino[2,1-f][1,2]thiazin-5-yl)-5-fluoropyridin-2-yl)-6-chloro-3-methylimidazo[1,2-a]pyridine-2-carboxamide], the IC50 in assay [1] is 28.5 nM. Besides, in assay [2], the response vs control in vivo at 30 mg/kg came to 103%.
For `CC1(C)C(N)=N[C@](C)(c2nc(NC(=O)c3ccc(OC(F)F)cn3)ccc2F)[C@@H]2CCN=[S@@]21=O` [Example 14AB, N-(6-((3aS,4R,8R)-6-amino-4,7,7-trimethyl-8-oxido-3,3a,4,7-tetrahydro-2H-isothiazolo[1,5-a][1,4]thiazin-4-yl)-5-fluoropyridin-2-yl)-5-(difluoromethoxy)picolinamide] the same measures were 6.3 nM and 61%.
